Reference: US20230398163A1, “FRUIT EXTRACTS FOR USE IN THE TREATMENT OF NEURODEGENERATIVE DISEASES” (NEUROSCIENCE PHARMA SPA, priority 2020, published 2023)

Tested on: PC12 cells
Test: MTT cell viability assay, extract alone
Type: cell-based
Details: addition of FCCP
Protocol: Cellular health was quantified using a 3-(4,5-dimethylthizol-2-yl)-2,5-diphenyltetrazolium bromide (MTT) assay, which indicates cell viability. Cultured PC12 cells were incubated in MTT (1 mg/ml) in 1X DPBS (Dulbecco's phosphate-buffered saline) for 30 minutes, in the presence (or absence) of maqui berry extract provided a concentrations ranging from 0.000081 mg/l to 81 mg/l. Precipitated MTT was dissolved using isopropanol for 15 minutes prior to being added to the culture medium. The cell absorbance was measured in a microplate reader (Novostar, BGM, Germany) at two wavelengths: 560 nm and 620 nm. The difference in cellular absorbance was quantified between the two wavelengths using NovoStar software across experimental conditions.

SMILES: N#CC(C#N)=NNc1ccc(OC(F)(F)F)cc1 [FCCP, Carbonyl cyanide 4-(trifluoromethoxy)phenylhydrazone]
- cell viability percent relative to control (MTT): significant decrease in cell viability percent relative to control levels
